Where two headings read alike, the source gives them in different places.
Experiments:
[1] = PO TMZ, Dose = 150 mg/m^2, Actual n = 12; cited from earlier work
[2] = Clinical bioequivalence study, IV (1.5-hr infusion) vs oral TMZ, primary CNS malignancies; type: in vivo, human; conditions: for Tmax / half-life / AUC / Cmax / concentration at 0 hr / concentration at 0.25 hr / concentration at 0.5 hr / concentration at 1 hr / concentration at 1.25 hr / concentration at 1.5 hr / concentration at 1.75 hr / concentration at 2 hr / concentration at 2.5 hr / concentration at 3 hr / concentration at 4 hr / concentration at 6 hr / concentration at 8 hr: human, plasma; for Tmax: read-out: Tmax, Median (range); for half-life: read-out: t½ terminal-phase half-life, Mean (CV, %) (converted); for concentration at 0 hr / concentration at 0.25 hr / concentration at 0.5 hr / concentration at 1 hr / concentration at 1.25 hr / concentration at 1.5 hr / concentration at 1.75 hr / concentration at 2 hr / concentration at 2.5 hr / concentration at 3 hr / concentration at 4 hr / concentration at 6 hr / concentration at 8 hr: read-out: Mean Temozolomide Concentration
Description: Twenty-two patients with primary CNS malignancies were enrolled in a clinical bioequivalence study and treated according to the methods of the present invention. Nineteen of the patients were considered to be pharmacokinetic evaluable. This study was a randomized, open-label, 2-way cross over study of the PK of oral and IV TMZ. The IV formulation of Example 3 is administered at a dosage of 150-200 mg/m^2 by intravenous infusion over a period of about 1.5 hours.
The patients are divided into two groups, those receiving Treatment A and those receiving Treatment B. The Treatment A patients receive oral TMZ (200 mg/m^2) on Days 1, 2 and 5, IV TMZ 150 mg/m2 on Day 3, and oral TMZ (150 mg/m^2) on Day 4 of a 28 day cycle. The Treatment B patients receive oral TMZ (200 mg/m^2) on Days 1, 2 and 5, Oral TMZ (150 mg/m^2) on Day 3 and IV TMZ (150 mg/m^2) on Day 4 of a 28 day cycle. Cmax and AUC for TMZ and MTIC are determined according to methods known to those skilled in the art on Days 3 and 4.

[3] = Two-way crossover pilot bioavailability study, IV (1-hour infusion) vs PO temozolomide; type: in vivo, human; conditions: for bioavailability / AUC / Cmax: human, plasma; for bioavailability: po, 150 mg/m^2/day, humans, n=13 patients; for AUC / Cmax: n = 13
Description: To validate the IV PK model, the first pass effects and oral bioavailability were determined in a two-way crossover pilot bioavailability study. This was a Phase-1, randomized, open-label pilot study designed to compare the relative bioavailability of IV and PO temozolomide in adult patients with histologically confirmed primary CNS malignancies. The study was conducted in conformance with Good Clinical Practices. Up to 18 patients (to yield 12 evaluable patients) were planned to be enrolled at 1 or 2 centers. 13 patients were enrolled at 2 centers (7 at Center 1, 6 at Center 2). All 13 patients were included in pharmacokinetic and safety analyses. Patients were followed for 23 days after treatment ended for safety evaluations.
After fulfilling all study eligibility requirements, the patients received temozolomide for 5 days (Days 1 to 5) during a 4-week treatment cycle. On Days 1, 2, and 5, patients received temozolomide (200 mg/m^2/day) as a PO dose. On Days 3 and 4, patients received Temozolomide (150 mg/m^2/day) as a PO dose on one day and as an IV dose on the other day. The IV dose was administered by 1-hour infusion (using an infusion pump) either on Day 3 or Day 4 according to a random code. Pharmacokinetic evaluations were performed on Days 3 and 4 for determination of concentrations of temozolomide and MTIC in plasma.

[4] = 1.5-hr infusion vs PO, 150 mg/m^2/day, n = 19
[5] = TMZ IV 1.5 hr infusion, 150 mg/m^2/day, n = 19
[6] = 150 mg/m2, TMZ PO, 150 mg/m^2/day, n = 19
[7] = IV 1.5 hr infusion, 150 mg/m^2/day, n = 19
[8] = IV 1.5 hr infusion, 150 mg/m^2/day, n = 18
[9] = 1-hour infusion vs PO, 150 mg/m2/day

- AUC(I) Ratio Estimate IV to PO [2, 4]: 105%
- AUC(I) ratio IV to PO, 90% Confidence Interval [2, 4]: 102-108%
- AUC(tf) Ratio Estimate IV to PO [2, 4]: 106%
- AUC(tf) ratio IV to PO, 90% Confidence Interval [2, 4]: 103-109%
- Cmax Ratio Estimate IV to PO [2, 4]: 97%
- Cmax ratio IV to PO, 90% Confidence Interval [2, 4]: 91-102%
- bioequivalence of IV (1.5-hr infusion) and oral formulations ([2]; Cmax, AUC(tf), AUC(I) of temozolomide and MTIC, n=19): bioequivalent
- tf time of final quantifiable sample, Mean (CV, %) [2, 5]: 8.00 (0) hr
- tf time of final quantifiable sample, Mean (CV, %) ([2]; TMZ PO, 150 mg/m^2/day, n = 19): 8.00 (0) hr
- Tmax [2, 6]: 1 h
- half-life [2, 6]: 1.91 h
- AUC ([2]; iv, 150 mg/m2, IV infusion about 1 hour to about 2 hours, single dose of 150 mg/m2, read-out: arithmetic AUC (from time zero to infinity) for temozolomide, range): 17600 to 37000 ng·h/mL
- Cmax ([2]; iv, 150 mg/m2, IV infusion about 1 hour to about 2 hours, single dose of 150 mg/m2, read-out: arithmetic maximum plasma concentration (Cmax) of temozolomide, range): 5500 to 10600 ng/mL
- AUC ([2]; iv, 150 mg/m2, IV infusion about 1 hour to about 2 hours, single dose of 150 mg/m2, read-out: arithmetic mean AUC (from time zero to infinity) for temozolomide): ~25000 ng·h/mL
- Cmax ([2]; iv, 150 mg/m2, IV infusion about 1 hour to about 2 hours, single dose of 150 mg/m2, read-out: arithmetic mean maximum plasma concentration (Cmax) of temozolomide): ~7400 ng/mL
- AUC ([2]; iv, 150 mg/m2, arithmetic mean AUC (from time zero to infinity) for temozolomide, IV infusion about 1 hour to about 2 hours, single dose of 150 mg/m2, heading: arithmetic mean AUC for temozolomide): ~25000 ng·h/mL
- AUC ([2]; iv, 150 mg/m^2/day, TMZ IV 1.5 hr infusion, 150 mg/m^2/day, n = 19, read-out: AUC(I) of TMZ, Mean): 25000 ng·h/mL
- AUC ([2]; iv, 150 mg/m^2/day, TMZ IV 1.5 hr infusion, 150 mg/m^2/day, n = 19, read-out: AUC(tf) of TMZ, Mean): 23400 ng·h/mL
- Cmax ([2]; iv, 150 mg/m^2/day, TMZ IV 1.5 hr infusion, 150 mg/m^2/day, n = 19, read-out: Cmax of TMZ, arithmetic Mean): 7440 ng/mL
- AUC ([2]; iv, 150 mg/m^2/day, TMZ IV 1.5 hr infusion, 150 mg/m^2/day, n = 19 PE, read-out: AUC(I) of TMZ, IV Mean (least-squares)): 24600 ng·h/mL
- AUC ([2]; iv, 150 mg/m^2/day, TMZ IV 1.5 hr infusion, 150 mg/m^2/day, n = 19 PE, read-out: AUC(tf) of TMZ, IV Mean (least-squares)): 23100 ng·h/mL
- Cmax ([2]; iv, 150 mg/m^2/day, TMZ IV 1.5 hr infusion, 150 mg/m^2/day, n = 19 PE, read-out: Cmax of TMZ, IV Mean (least-squares)): 7290 ng/mL
- AUC ([2]; po, 150 mg/m2, TMZ PO, 150 mg/m^2/day, n = 19, read-out: AUC(I) of TMZ, Mean): 23600 ng·h/mL
- AUC ([2]; po, 150 mg/m2, TMZ PO, 150 mg/m^2/day, n = 19, read-out: AUC(tf) of TMZ, Mean): 22000 ng·h/mL
- Cmax ([2]; po, 150 mg/m2, TMZ PO, 150 mg/m^2/day, n = 19, read-out: Cmax of TMZ, arithmetic Mean): 7680 ng/mL
- AUC ([2]; po, 150 mg/m2, TMZ PO, 150 mg/m^2/day, n = 19 PE, read-out: AUC(I) of TMZ, PO Mean (least-squares)): 23400 ng·h/mL
- AUC ([2]; po, 150 mg/m2, TMZ PO, 150 mg/m^2/day, n = 19 PE, read-out: AUC(tf) of TMZ, PO Mean (least-squares)): 21800 ng·h/mL
- Cmax ([2]; po, 150 mg/m2, TMZ PO, 150 mg/m^2/day, n = 19 PE, read-out: Cmax of TMZ, PO Mean (least-squares)): 7540 ng/mL
- concentration at 0 hr [2, 7]: 0 ng/mL
- concentration at 0.25 hr [2, 8]: 2380 ng/mL
- concentration at 0.5 hr [2, 7]: 3670 ng/mL
- concentration at 1 hr [2, 7]: 5490 ng/mL
- concentration at 1.25 hr [2, 8]: 6590 ng/mL
- concentration at 1.5 hr [2, 7]: 7080 ng/mL
- concentration at 1.75 hr [2, 7]: 6100 ng/mL
- concentration at 2 hr [2, 7]: 5600 ng/mL
- concentration at 2.5 hr [2, 7]: 4590 ng/mL
- concentration at 3 hr [2, 8]: 3860 ng/mL
- concentration at 4 hr [2, 7]: 2810 ng/mL
- concentration at 6 hr [2, 7]: 1200 ng/mL
- concentration at 8 hr [2, 7]: 590 ng/mL
- concentration at 0 hr ([2]; PO, 150 mg/m^2/day, n = 19): 0 ng/mL
- concentration at 0.25 hr ([2]; PO, 150 mg/m^2/day, n = 19): 2110 ng/mL
- concentration at 0.5 hr ([2]; PO, 150 mg/m^2/day, n = 19): 5320 ng/mL
- concentration at 1 hr ([2]; PO, 150 mg/m^2/day, n = 19): 6050 ng/mL
- concentration at 1.25 hr ([2]; PO, 150 mg/m^2/day, n = 18): 6120 ng/mL
- concentration at 1.5 hr ([2]; PO, 150 mg/m^2/day, n = 19): 5770 ng/mL
- concentration at 1.75 hr ([2]; PO, 150 mg/m^2/day, n = 18): 5360 ng/mL
- concentration at 2 hr ([2]; PO, 150 mg/m^2/day, n = 19): 4890 ng/mL
- concentration at 2.5 hr ([2]; PO, 150 mg/m^2/day, n = 19): 4000 ng/mL
- concentration at 3 hr ([2]; PO, 150 mg/m^2/day, n = 19): 3440 ng/mL
- concentration at 4 hr ([2]; PO, 150 mg/m^2/day, n = 19): 2410 ng/mL
- concentration at 6 hr ([2]; PO, 150 mg/m^2/day, n = 19): 1170 ng/mL
- concentration at 8 hr ([2]; PO, 150 mg/m^2/day, n = 19): 560 ng/mL
- Tmax [2, 5]: 1.5 h
- half-life [2, 5]: 1.82 h
- AUC Ratio Estimate IV/PO [3, 9]: 104%
- AUC ratio IV/PO, 90% C.I. [3, 9]: 97-112%
- Cmax Ratio Estimate IV/PO [3, 9]: 114%
- Cmax ratio IV/PO, 90% C.I. [3, 9]: 100-131%
- bioavailability ([3]; read-out: oral bioavailability): 96%
- bioavailability ([3]; read-out: oral bioavailability, range): 89 to 100%
- AUC ([3]; TMZ IV 1-hour infusion, 150 mg/m2/day, read-out: AUC of TMZ, IV Mean (least-squares)): 21500 ng·h/mL
- Cmax ([3]; TMZ IV 1-hour infusion, 150 mg/m2/day, read-out: Cmax of TMZ, IV Mean (least-squares)): 7100 ng/mL
- AUC ([3]; TMZ PO, 150 mg/m2/day, read-out: AUC of TMZ, PO Mean (least-squares)): 20700 ng·h/mL
- Cmax ([3]; TMZ PO, 150 mg/m2/day, read-out: Cmax of TMZ, PO Mean (least-squares)): 6200 ng/mL
Structure (SMILES): Cn1nnc2c(C(N)=O)ncn2c1=O [TMZ, 3,4-dihydro-3-methyl-4-oxoimidazo[5,1-d]-as-tetrazine-8-carboxamide]
- Maximum AUC [1]: 35400 ng·h/mL
- Maximum Cmax [1]: 16800 ng/mL
- Mean AUC [1]: 24800 ng·h/mL
- Mean Cmax [1]: 8800 ng/mL
- Minimum AUC [1]: 17700 ng·h/mL
- Minimum Cmax [1]: 2600 ng/mL

Source: patent US20100210700A1, “METHODS OF TREATMENT USING INTRAVENOUS FORMULATIONS COMPRISING TEMOZOLOMIDE” (SCHERING CORPORATION, priority 2007, published 2010)
